19 compounds from patent US20240374738A1, “BIFUNCTIONAL COMPOUND CAPABLE OF DEGRADING RECEPTOR TYROSINE KINASE AND APPLICATION THEREOF” (TAIBIDI PHARMACEUTICAL TECHNOLOGY (SHIJIAZHUANG) CO., LTD., priority 2023, published 2024) can be followed below.

The Dmax is the greatest extent of degradation seen. For orientation: IC50 means the midpoint of a concentration-inhibition curve.

Bounds are passed on as bounds.

Format in all cases: cell-based
The target in one experiment is DDR1 (Homo sapiens, UniProt Q08345). As to the kind of experiment: Degradation of DDR1 in tumor cell MKN45 (Western blot). Further details: The degradation activity of the compounds against DDR1 in the MKN45 cell line; endogenous in cells; host or cells: MKN45. As to conditions: MKN-45, maximum degradation percentage, MKN45 cells, 24 hours. How it is done:
Western blot experiment: Take gastric cancer cells (MKN45) and inoculate them into a 6-well plate at a concentration of […], adding 2 ml to each well and incubating for 24 hours.
The next day, observe the cells under a microscope to confirm their status. Prepare compounds, weigh a certain amount of the series compounds or reference drug cabozantinib from this patent, first prepare a high concentration mother liquor with pure DMSO, and use gradient dilution method to prepare compound concentrations of 2 mM, 200 μM, 100 μM, 20 μM, 2 μM, 200 nM, and 0 nM. The final concentration of DMSO is 0.5%. Shake to thoroughly mix. Add 10 μl of solution to each well. After incubation for 24 hours, remove the cells and use a pipette to aspirate the suspended cells into a 1.5 ml centrifuge tube. Centrifuge at 5000 rpm for 10 minutes to precipitate the cells. Carefully remove the cell precipitate from the culture medium, add 1 ml of PBS and shake slightly. After repeated cleaning for 3 times, dry the residue. Add 150 μl of RIPA lysate pre mixed with 1% PMSF, blow to allow the lysate to fully contact the cells, and incubate on ice for 10 minutes. Centrifuge at 12000 rpm for 10 minutes, extract the supernatant, use the BCA protein quantification kit to determine and homogenize the sample loading.
Mix BCA-A in a 50:1 ratio Prepare working solution with B solution, dilute the sample by 5 times, then pipette 20 μl onto a 96 well ELISA plate. Add 200 μl of pre mixed BCA working solution and incubate at 37° C. for 20 minutes. Measure the A562 nm absorbance value using an ELISA reader and substitute it into the protein standard curve formula to obtain the sample concentration. After calculating the required volume for loading […] of sample, divide the sample into 1.5 ml centrifuge tubes. Add 10 μl of sample buffer to each tube and mix well. Heat in a 95° C. metal bath for 5 minutes to denature the protein.
Take 4-20% gradient pre adhesive and fix it on the adhesive rack. Add electrophoresis solution to the slot and remove the comb, Marker and protein samples were loaded, and after 30 minutes of electrophoresis at 80V, the voltage was adjusted to 120V for electrophoresis, The marker band stops electrophoresis at the forefront of the gel. Take out the adhesive block and cut it to the appropriate size, The PVDF membrane was cut and activated in methanol, and after activation, the PVDF membrane was equilibrated in a membrane transfer equilibrium solution for 1 minute. Using sponge pads The sequence of PVDF film, adhesive, and sponge pad is placed in the splint and placed in the eBlot equipment for rapid wet rotation. Remove the membrane and seal it in 5% skim milk powder dissolved in 1×TBST for 1 hour. Cut the membrane according to the molecular weight of the target protein and internal reference protein, and place it in primary antibody diluted with 1×TBST. Shake overnight at 4° C.
The next day, transfer the band to 1×TBST for 3 washes, then add a specific dilution of the secondary antibody and shake it for 1.5 hours. Transfer the band again to 1×TBST for 3 washes, prepare ECL color solution, place the membrane in the imaging system, cover the surface with ECL color solution, and take photos of the membrane using the imaging system.
Using the SHST analysis system to analyze the results, measure the grayscale values of each band of the target protein and internal reference protein. Normalize the grayscale values of the target protein/corresponding lane GAPDH grayscale values, and perform quantitative analysis according to the protein amount=experimental group grayscale value/blank control group grayscale value.
The activity of the compound of the present invention in degrading DDR in tumor cell line MKN45 was measured. […]
Background: In western blotting, separated proteins are transferred to a membrane and probed.

In a further experiment the test system is MKN45. As to the kind of experiment: Growth inhibition of gastric cancer cells MKN45 (CCK-8). As to conditions: Homo sapiens, MKN-45, half inhibitory concentration, 72 hours. As to the method: (§1) Inoculate gastric cancer cells (SNU5 or MKN45) into a 96 well plate at a concentration of […], with 100 μl added to each well. Incubate for 30 minutes. Observe the cell status under a microscope. Prepare compounds, weigh a certain amount of the series compounds or reference drug cabozantinib of this patent, first prepare a high concentration mother liquor with pure DMSO, and use gradient dilution method to prepare a concentration of 200 μM, 60 μM, 20 μM, 6 μM, 2 μM, 600 nM, 200 nM, 0 nM drug solution, shake to make it fully mixed. The control group was prepared with cabozantinib using the same solvent and method.
(§2) After preparation, add 1 μl of drug solution to each well of the 96 well plate, and then add 100 μl of culture medium. Repeat each dose three times. Gently shake to allow the cells and medication to come into full contact and incubate in the incubator for 72 hours. 72 hours later, remove and color with CCK-8 reagent kit. Add 20 μl of CCK-8 reagent to each well, gently shake well, and incubate in the incubator for 1 hour. After 1 hour, remove and measure the absorbance of each well using an enzyme-linked immunosorbent assay (ELISA) reader at a wavelength of 450 nm.
(§3) According to the formula: Cell growth inhibition rate=[1−(absorbance of experimental group absorbance of culture medium control group)/(absorbance of blank control group−absorbance of culture medium control group)]×100%. It can be concluded that the compound has the ability to inhibit the growth of gastric cancer cells at the current dose and time.
(§4) Draw a graph based on the gradient of concentration and use GraphPad Prism 9 software (GraphPad Software, La Jolla, CA) to calculate the maximum inhibitory concentration (IC50) at 50%.
(§5) Referring to steps 1 and 2 of this embodiment, the inhibitory effect of the compound of the present invention on the growth of cancer cells and the degradation effect of target proteins were measured, and the following results were obtained (see Table 2 below).
(§6) The growth inhibitory effects of the compound of the present invention on tumor cell lines MKN45 and SNU5 were measured. The activity is expressed as half inhibitory concentration (C50). The results are shown in Table 2 below; When the half inhibitory concentration is less than or equal to 100 nM, the compound activity is labeled as “++++”; When the half inhibitory concentration is greater than 100 nM and less than 500 nM, the compound activity is labeled as […] and less than 1000 nM, the compound activity is labeled as “++”; When the half inhibitory concentration is greater than 1000 nM and less than 3000 nM, the compound activity is marked as “+”; When the half inhibitory concentration is greater than 3000 nM, the compound activity is marked as […]

The next experiment deals with SNU5. Put plainly: Growth inhibition of gastric cancer cells SNU5 (CCK-8). Particulars: Homo sapiens, SNU-5, half inhibitory concentration, 72 hours. How it is done: as §1, §2, §3, §4, §5, §6

Sequence of DDR1 (Q08345 19-913): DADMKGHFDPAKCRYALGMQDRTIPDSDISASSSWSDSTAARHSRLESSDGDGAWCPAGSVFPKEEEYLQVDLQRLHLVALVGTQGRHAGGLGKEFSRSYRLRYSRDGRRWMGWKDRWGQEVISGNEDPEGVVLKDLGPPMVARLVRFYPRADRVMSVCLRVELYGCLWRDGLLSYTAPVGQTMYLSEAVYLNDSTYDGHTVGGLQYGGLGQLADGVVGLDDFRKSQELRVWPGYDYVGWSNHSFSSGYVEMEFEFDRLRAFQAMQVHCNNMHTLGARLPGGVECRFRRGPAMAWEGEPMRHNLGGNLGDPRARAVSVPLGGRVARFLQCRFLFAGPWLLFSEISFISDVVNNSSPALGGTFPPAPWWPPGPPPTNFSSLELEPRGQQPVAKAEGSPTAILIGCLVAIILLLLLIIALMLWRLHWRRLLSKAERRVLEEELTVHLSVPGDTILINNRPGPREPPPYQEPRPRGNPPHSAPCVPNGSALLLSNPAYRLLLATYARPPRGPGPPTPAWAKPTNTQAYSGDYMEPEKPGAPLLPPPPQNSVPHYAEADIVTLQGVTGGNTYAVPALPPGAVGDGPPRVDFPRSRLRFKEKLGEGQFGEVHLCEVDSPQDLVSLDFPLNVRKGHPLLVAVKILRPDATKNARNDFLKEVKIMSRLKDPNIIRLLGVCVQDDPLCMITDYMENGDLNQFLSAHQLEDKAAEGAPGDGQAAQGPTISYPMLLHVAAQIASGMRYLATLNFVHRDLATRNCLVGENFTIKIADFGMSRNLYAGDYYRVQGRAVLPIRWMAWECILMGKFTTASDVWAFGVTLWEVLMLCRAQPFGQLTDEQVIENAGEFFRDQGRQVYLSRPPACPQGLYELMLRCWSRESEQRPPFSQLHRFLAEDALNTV

As to `COc1cc2c(Oc3ccc(NC(=O)C4(C(=O)Nc5ccc(F)cc5)CC4)cc3)ccnc2cc1NCC(=O)N1CCC(CN2CCN(c3ccc(N(C)C4CCC(=O)NC4=O)nc3F)CC2)CC1` (stereo not drawn) [TPD5773], the Dmax on DDR1 lay within 65 to 75%. Besides, the IC50 with MKN45 was in the range of 0.5 to 1 µM; in the experiment with SNU5 it was 0.1 to 0.5 µM.
At DDR1, `COc1cc2c(Oc3ccc(NC(=O)C4(C(=O)Nc5ccc(F)cc5)CC4)cc3)ccnc2cc1NCC(=O)N1CCC(CN2CCN(c3ccc(NC4CCC(=O)NC4=O)nc3F)CC2)CC1` (stereo not drawn) [TPD5774] had a Dmax of more than 85%. For the same compound, the IC50 fell in the range of 0.1 to 0.5 µM in the experiment on MKN45 and 0.5 to 1 µM in the experiment with SNU5.
In the case of `COc1cc2c(Oc3ccc(NC(=O)C4(C(=O)Nc5ccc(F)cc5)CC4)cc3)ccnc2cc1N1CCC(CN2CCN(CC(=O)Nc3cccc4c3CN(C3CCC(=O)NC3=O)C4=O)CC2)CC1` (stereo not drawn) [TPD5901], at DDR1, the Dmax was more than 85%. Also, the IC50 in the experiment on MKN45 and with SNU5 was not above 0.1 µM throughout.
As for `COc1cc2c(Oc3ccc(NC(=O)C4(C(=O)Nc5ccc(F)cc5)CC4)cc3)ccnc2cc1N1CCC(CN2CCC(N3CCN(c4cccc5c4CN(C4CCC(=O)NC4=O)C5=O)CC3)CC2)CC1` (stereo not drawn) [TPD5907], the Dmax on DDR1 was more than 85%. Also, the IC50 in the experiment with MKN45 and with SNU5 was not above 0.1 µM in each case.
At DDR1, `COc1cc2c(Oc3ccc(NC(=O)C4(C(=O)Nc5ccc(F)cc5)CC4)cc3)ccnc2cc1N1CCC(CN2CCN(CCCc3cccc4c3CN(C3CCC(=O)NC3=O)C4=O)CC2)CC1` (stereo not drawn) [TPD5937] returned a Dmax of 65 to 75%. In addition, the IC50 in the experiment with MKN45 and in the experiment on SNU5 was not above 0.1 µM each time.
Take `COc1cc2c(Oc3ccc(NC(=O)C4(C(=O)Nc5ccc(F)cc5)CC4)cc3)ccnc2cc1N1CCC(CN2CCN(CCNc3cccc4c3C(=O)N(C3CCC(=O)NC3=O)C4=O)CC2)CC1` (stereo not drawn) [TPD5972]: the Dmax on DDR1 is more than 85%. The IC50 in the experiment with MKN45 and in the experiment on SNU5 was not above 0.1 µM in each case.
On to `O=C1CCC(N2C(=O)c3ccc(N4CCN(CCC5CCN(CCNC(=O)c6ccc(-c7cnc8ncc(Cc9ccc%10ncccc%10c9)n8n7)cc6F)CC5)CC4)cc3C2=O)C(=O)N1` (stereo not drawn) [TPD7022], for which the greatest degradation seen (Dmax) at DDR1 fell in the range of 65 to 75%. The IC50 with MKN45 and in the experiment on SNU5 was 0.1 to 0.5 µM throughout.
Take `CNC(=O)c1ccc(-c2cnc3ncc(Cc4ccc5ncc(NC(=O)CN6CCC(CN7CCN(c8ccc9c(c8)C(=O)N(C8CCC(=O)NC8=O)C9=O)CC7)CC6)cc5c4)n3n2)cc1F` (stereo not drawn) [TPD7026]: at DDR1, the Dmax is 65 to 75%. Moreover, the IC50 in the experiment with MKN45 and in the experiment on SNU5 was not above 0.1 µM each time.
Take `Cc1ncsc1-c1ccc(CNC(=O)[C@@H]2C[C@@H](O)CN2C(=O)[C@@H](NC(=O)CN2CCN(CC3CCN(C(=O)c4ccc(-c5cnc6ncc(Cc7ccc8ncccc8c7)n6n5)cc4F)CC3)CC2)C(C)(C)C)cc1` [TPD9004]: on DDR1, the Dmax lay within 75 to 85%. The 50% inhibitory concentration (IC50) in the experiment on MKN45 is 0.1 to 0.5 µM; in the experiment on SNU5 it was not above 0.1 µM.
For the compound `CNC(=O)c1ccc(-c2cnc3ncc(Cc4ccc5ncc(C(=O)N6CCC(CN7CCN(CC(=O)N[C@H](C(=O)N8C[C@H](O)C[C@H]8C(=O)NCc8ccc(-c9scnc9C)cc8)C(C)(C)C)CC7)CC6)cc5c4)n3n2)cc1F` [TPD9006], on DDR1, the Dmax lay within 75 to 85%. Moreover, the IC50 is not above 0.1 µM with MKN45 and 0.1 to 0.5 µM with SNU5.
In the same order, the values of `Cc1ncsc1-c1ccc(CNC(=O)[C@@H]2C[C@@H](O)CN2C(=O)[C@@H](NC(=O)CCN2CCC(COc3cnc(-c4cccc(Cn5nc(-c6cccc(C#N)c6)ccc5=O)c4)nc3)CC2)C(C)(C)C)cc1` [TPD10001] are 65 to 75%, 0.5 to 1 µM and 0.1 to 0.5 µM.
In turn, `N#Cc1cccc(-c2ccc(=O)n(Cc3cccc(-c4ncc(OCC5CCN(CCC(=O)Nc6cccc7c6CN(C6CCC(=O)NC6=O)C7=O)CC5)cn4)c3)n2)c1` (stereo not drawn) [TPD10013] yielded a Dmax on DDR1 of 65 to 75%. In addition, the IC50 in the experiment on MKN45 fell in the range of 1 to 3 µM; in the experiment with SNU5 it was 0.5 to 1 µM.
`C[C@@H](Oc1cc(-c2cnn(C3CCN(CCC(=O)Nc4cccc5c4CN(C4CCC(=O)NC4=O)C5=O)CC3)c2)cnc1N)c1c(Cl)ccc(F)c1Cl` (stereo partly drawn) [TPD10040] gave a Dmax on DDR1 of 75 to 85%. The IC50 in the experiment with MKN45 and in the experiment with SNU5 was not above 0.1 µM throughout.
In turn, `C[C@@H](Oc1cc(-c2cnn(C3CCN(CCN4CCN(c5ccc6c(c5)C(=O)N(C5CCC(=O)NC5=O)C6=O)CC4)CC3)c2)cnc1N)c1c(Cl)ccc(F)c1Cl` (stereo partly drawn) [TPD10041] had a Dmax on DDR1 of more than 85%. For the same compound, the figures for the IC50 in the experiment on MKN45 and in the experiment on SNU5 were 0.5 to 1 µM and not above 0.1 µM, respectively.
`Cc1nc(CCOC2CCN(CCC(=O)Nc3cccc4c3CN(C3CCC(=O)NC3=O)C4=O)CC2)cc(Nc2ncc(C(=O)Nc3c(C)cccc3Cl)s2)n1` (stereo not drawn) [TPD10050]: the Dmax at DDR1 lay in the range of 75 to 85%. For the same compound, the IC50 is 0.5 to 1 µM with MKN45 and 0.1 to 0.5 µM in the experiment on SNU5.
With `Cc1nc(CCN2CCC(CN3CCN(c4ccc5c(c4)C(=O)N(C4CCC(=O)NC4=O)C5=O)CC3)CC2)cc(Nc2ncc(C(=O)Nc3c(C)cccc3Cl)s2)n1` (stereo not drawn) [TPD10051], at DDR1, the Dmax was more than 85%. Moreover, the IC50 is not above 0.1 µM in the experiment with MKN45 and 0.5 to 1 µM with SNU5.
For `COc1cc2c(Oc3ccc(NC(=O)C4(C(=O)Nc5ccc(F)cc5)CC4)cc3)ccnc2cc1N1CCC(CN2CCN(CCNc3nccc4c3CN(C3CCC(=O)NC3=O)C4=O)CC2)CC1` (stereo not drawn) [TPD12001] the same measures were 65 to 75%, not above 0.1 µM and not above 0.1 µM.
For `COc1cc2c(Oc3ccc(NC(=O)C4(C(=O)Nc5ccc(F)cc5)CC4)cc3)ccnc2cc1N1CCC(CN2CCN(CCNc3cc4c(cn3)C(=O)N(C3CCC(=O)NC3=O)C4)CC2)CC1` (stereo not drawn) [TPD12003] the same measures were 75 to 85%, not above 0.1 µM and not above 0.1 µM.
At DDR1, `COc1cc2c(Oc3ccc(NC(=O)C4(C(=O)Nc5ccc(F)cc5)CC4)cc3)ccnc2cc1N1CCC(CN2CCN(CCNc3cc4c(cn3)CN(C3CCC(=O)NC3=O)C4=O)CC2)CC1` (stereo not drawn) [TPD12009] had a Dmax of 65 to 75%. For the same compound, the IC50 in the experiment on MKN45 and with SNU5 was not above 0.1 µM each time.
